Results as given in US20210283099A1, “CDC7 KINASE INHIBITORS AND USES THEREOF” (SLOAN-KETTERING INSTITUTE FOR CANCER RESEARCH, priority 2010, published 2021).

Columns and labels:
Mcm2 phosphorylation = assay: Western blotting of Mcm2 after S phase release; assay type: cell-based, human; conditions: PhALL3.1 cells, as early as 2 hours post release
From the text: FIG. 7. Granaticin A Inhibits Mcm2 phosphorylation: Following synchronization in S phase and release, PhALL3.1 cells from the experiments of FIG. 5 and FIG. 6 were collected at the indicated times post release into either control (DMSO) or granaticin A and extracts were subjected to Western blotting to detect total Mcm2 protein.

[1] = tested on: primary patient leukemia samples; assay: Inhibition of cellular proliferation, all primary patient leukemia samples; assay type: cell-based, human
Method: FIGS. 16A-16B. Granaticin A and Granaticin B inhibit multiple tumor types: The indicated cell lines and primary patient samples were tested against the compounds listed in standard cytotoxicity assays (12 point dose response using Alamar blue reduction as an indicator of cell viability). Assays were done in triplicate and IC50 determinations were run in 12-point serial dilutions from […] to 5 nM. […] These include ras and EGFR gatekeeper mutation containing cell lines in addition to p53 mutant cell lines and other known chemotherapy resistant cell lines. Specifically, this included multi-drug resistance phenotype (MDR-overexpressing) cell lines from multiple hematologic and solid tumor cell lines. Table 1 highlights a series of primary patient leukemia samples-both acute and chronic and treatment naïve and refractory tested against granaticins A and B and Derivatives 1 and 2 (see Examples).
Table 1 highlights a series of primary patient leukemia samples-both acute and chronic and treatment naïve and refractory and the effect of granaticin A, granaticin B, derivative 1, and derivative 2 to inhibit cellular proliferation. […]

Compound	Mcm2 phosphorylation in cells (Mcm2 phosphorylation)	activity relative to granaticin A ([1]; against all the samples tested)	range of inhibition of cellular proliferation ([1]; all the samples tested)
CC1OC2CC(O)C1(O)c1c(O)c3c(c(O)c12)C(=O)C1=C(C3=O)[C@H](C)O[C@H]2CC(=O)O[C@@H]12 (stereo partly drawn) [Granaticin A, granaticin A]	inhibition of Mcm2 phosphorylation	–	–
CC1OC2CC(O[C@H]3CC[C@H](O)[C@H](C)O3)C1(O)c1c(O)c3c(c(O)c12)C(=O)C1=C(C3=O)[C@H](C)O[C@H]2CC(=O)O[C@@H]12 (stereo partly drawn) [Granaticin B, granaticin B]	–	approximately one log	low nanomolar range
